In patent publication US20150133492A1, “N-desmethyldauricine, A Novel Autophagic Enhancer for Treatment of Cancers and Neurodegenerative Conditions Thereof” (Macau University of Science and Technology, priority 2013, published 2015):

Test system: HeLa cells expressing GFP-LC3
Test: GFP-LC3 puncta in the presence of specific inhibitors
Format: cell-based, human
Conditions: LP-4 10 μM, 4 hours, CC 10 μM, STO-609 25 μM, BM 10 μM
Description: GFP-LC3 puncta formation was quantified as previously described^15. In brief, HeLa cells expressing GFP-LC3 were treated with N-desmethyldauricine (LP-4, 10 μM) in the presence of AMPK inhibitor, compound C (CC, 10 μM), CaMKK-β inhibitor, STO-609 (25 μM) or Calcium chelator, BAPTA/AM (BM, 10 μM) for 4 hours. The cells were then fixed in 4% paraformaldehyde for 20 minutes at room temperature and then rinsed with PBS. Slides were mounted with FluorSave™ mounting media (Calbiochem) and examined by fluorescence microscopy. To quantify for autophagy, the percentage of cells with punctate GFP-LC3 fluorescence was calculated by counting the number of the cells with punctate GFP-LC3 fluorescence in GFP-positive cells. A minimum of 150 cells from 3 randomly selected fields was scored.

| Compound | N-desmethyldauricine-induced GFP-LC3 puncta formation in presence of inhibitor |
| --- | --- |
| CC(=O)OCOC(=O)CN(CC(=O)OCOC(C)=O)c1ccccc1OCCOc1ccccc1N(CC(=O)OCOC(C)=O)CC(=O)OCOC(C)=O [BAPTA/AM] | significant reduction |
| O=C(O)c1ccc2c3c1cccc3c(=O)n1c3ccccc3nc21 [STO-609] | significant reduction |
| c1cc(-c2cnn3cc(-c4ccc(OCCN5CCCCC5)cc4)cnc23)ccn1 [compound C] | significant reduction |
